How the values were obtained:
Solubility = assay type: physicochemical; conditions: in water and in methanol
Sprague Dawley rats = experiment: Locomotor activity after chronic administration; assay type: in vivo, rat; conditions: chronic 0.5 mg/kg daily orally, one night 5 p.m. to 7 a.m. (FIG. 11)
Description: Test animals and drug treatments were as in Example 14. Locomotor activity was recorded for one night (5 p.m. to 7 a.m. the following morning) in the control as well as in the betulinic acid and methyl ester of betulinic acid exposed groups. Locomotor activity was monitored using infrared sensors located on the roof of the animals' cage. Eight independent sensors monitored activity of animals according to the number of quadrants traversed.

[1] = Weight gain over chronic treatment; assay type: in vivo, rat; conditions: rats, chronic 0.5 mg/kg daily orally (FIG. 12)
Sprague-Dawley rats = experiment: Rat social interaction paradigm; assay type: in vivo; conditions: 0.5 mg/kg i.p.
Source text: The rat social interaction paradigm takes advantage of rats' natural behaviour in novel situations. The more ‘anxious’ the animals are, the less likely they are engage in social interaction with the cohort. Anxiolytic drugs typically increase the amount of time rodents spend socially interacting with one another. (Pile, S. E., (1980). The use of social interaction as a method for detecting anxiolytic activity of chlor-diazepoxide-like drugs. In Current Protocols in Neuroscience (pp. 8.3.3-8.3.4), John-Wiley & Sons).
The social-interaction (SI) test arena constituted of a 60×60 cm white Plexiglas floor, enclosed by 35-cm high walls of the same material. The arena was surrounded by black curtain, and a closed circuit camera was positioned above the setup, to feed live video signals to the experimenter seated in a separate room, for behavioral assessment and recording.
Each rat was placed alone in the SI box for 7.5 min daily for 2 days, in order to familiarize the animals with the test environment. Animals were paired according to their body weights (less than 10 g difference) and each pair was randomly assigned to one of the treatment groups. Rats received either betulinic acid 0.5 mg/kg i.p., betulinic acid methyl ester (methyl betulinate) 0.5 mg/kg i.p., or peanut oil only (control). Drugs were injected (i.p.) 60 min prior to testing. Tests were carried out at three intervals, 1 h, 2.5 h and 4 h after injection. Each pair was tested at the 1-h interval, then new pairs from within the same drug group were formed for the 2.5-h interval and then again at the 4-h interval (new pairs were formed for each test interval, to control for the potential confounding effect partner familiarity). […] The behaviors scored included the amount of time the pairs spent interacting together (sniffing, grooming and chasing) as well as the number of times the animals initiated contact.

[2] = Elevated plus maze, betulinic acid vs structurally related compounds (Example 11); assay type: in vivo
Source text: This example compares the anxiolytic activity of betulinic acid and some other structurally related compounds. Results are illustrated in FIG. 7.

C=C(C)C1CCC2(C(=O)[O-])CCC3(C)C(CCC4C5(C)CCC(O)C(C)(C)C5CCC43C)C12.[Na+] (centres unmarked) [sodium salt of betulinic acid]
solubility relative to pure betulinic acid (Solubility): greater in water and in methanol than pure betulinic acid

C=C(C)[C@@H]1CC[C@]2(C(=O)OC)CC[C@]3(C)[C@H](CC[C@@H]4[C@@]5(C)CC[C@H](O)C(C)(C)[C@@H]5CC[C@]43C)[C@@H]12 [betulinic acid methyl ester, Methyl betulinate]
adverse effect on locomotor activity or pattern (Sprague Dawley rats): neither betulinic acid nor the methyl ester of betulinic acid had an adverse effect on locomotor activity or pattern | effect of chronic drug treatment on weight gain [1]: did not seem to affect weight gain in a significant manner | frequency of initiated contact (Sprague-Dawley rats): not significant | amount of social interaction (interaction time) compared to the control group (Sprague-Dawley rats; data collapsed across 1 h, 2.5 h and 4 h (FIG. 8)): significantly increased the amount of social interaction | increase of social interaction compared to betulinic acid (Sprague-Dawley rats; p<0.05): significantly more effective at increasing social interaction than betulinic acid

CC1(C)CC[C@]2(C)CC[C@]3(C)C(=CC[C@@H]4[C@@]5(C)CC[C@H](O)C(C)(C)[C@@H]5CC[C@]43C)[C@@H]2C1 [beta-amyrin]
anxiolytic activity on the elevated plus maze paradigm ([2]; 5 mg/kg (FIG. 7)): neither beta-amyrin (5 mg/kg) nor oleanolic acid (0.5 mg/kg), two compounds structurally related to betulinic acid, displayed any anxiolytic activity

CC1(C)CC[C@]2(C(=O)O)CC[C@]3(C)C(=CC[C@@H]4[C@@]5(C)CC[C@H](O)C(C)(C)[C@@H]5CC[C@]43C)[C@@H]2C1 [oleanolic acid]
anxiolytic activity on the elevated plus maze paradigm ([2]; 0.5 mg/kg): neither beta-amyrin (5 mg/kg) nor oleanolic acid (0.5 mg/kg), two compounds structurally related to betulinic acid, displayed any anxiolytic activity

— patent US20130065868A1, “ANXIOYTIC MARCGRAVIACEAE COMPOSITIONS CONTAINING BETULINIC ACID, BETULINIC ACID DERIVATIVES, AND METHODS” (UNIVERSITY OF OTTAWA, priority 2002, published 2013)
